Results as given in US6992105B2, “Dipeptide derivatives” (Novartis AG, priority 2001, dated 2006).

Experiments:
[1] = test system: spontaneously hypertensive rat (SHR); test: anti-hypertensive activity in the spontaneously hypertensive rat (SHR); format: in vivo; settings: conscious SHR, once daily administration of 11.8 mg/kg p.o.
From the text: The anti-hypertensive activity can be determined, e.g., in the spontaneously hypertensive rat (SHR) and the DOCA-salt hypertensive rat, e.g., according to Bazil et al., J. Cardiovasc. Pharmacol., Vol. 22, pp. 897–905 (1993) and Trapani et al., J. Cardiovasc. Pharmacol., Vol. 14, pp. 419–424 (1989), respectively.

[2] = test system: angiotensin I induced pressor response (ACE); test: inhibition of the angiotensin I induced pressor response in normotensive rats; format: in vivo, rat; settings: 11.8 mg/kg p.o., conscious normotensive rats
Procedure: The in vivo test for i.v. administered compounds is performed with male, normotensive rats, which are conscious. A femoral artery and femoral vein are cannulated respectively for direct blood pressure measurement on i.v. administration of angiotensin I and i.v. or p.o. administration of a compound of this invention. After the basal blood pressure is stabilized, pressor responses to 3 or 4 challenges of 300 ng/kg angiotensin I i.v., at 15-minute intervals, are obtained. Such pressure responses are usually again obtained at 15, 30, 60 and 90 minutes, and then every hour up to 6 hours after i.v. or p.o. administration of the compound to be tested, and compared with the initial responses. Any observed decrease of said pressor response is an indication of ACE inhibition.

[3] = test system: plasma ANF concentration (NEP inhibition); test: effect on rat plasma ANF concentration; format: in vivo; settings: 11.8 mg/kg p.o., rats infused with ANF 450 ng/kg/min i.v.
Procedure: The effect of the compounds of the invention on rat plasma ANF concentration can be determined as follows:
Male Sprague-Dawley rats (275–390 g) are anesthetized with ketamine (150 mg/kg)/acepromazine (10%) and instrumented with catheters in the femoral artery and vein to obtain blood samples and infuse ANF, respectively. The rats are tethered with a swivel system and are allowed to recover for 24 hours before being studied in the conscious, unrestrained state.
In the assay, plasma ANF levels are determined in the presence and absence of NEP inhibition. On the day of study, all rats are infused continuously with ANF at 450 ng/kg/min. i.v. for the entire 5 hours of the experiment. Sixty minutes after beginning the infusion, blood samples for baseline ANF measurements are obtained (time 0) and the rats are then randomly divided into groups treated with the test compound or vehicle. Additional blood samples are taken 30, 60, 120, 180 and 240 minutes after administration of the test compound.
Plasma ANF concentrations are determined by a specific radioimmunoassay. […] The supernatant is decanted and the pellets counted in a gamma counter. […] Plasma ANF levels are expressed as a percent of those measured in vehicle-treated animals which received ANF alone (450 ng/kg/min. i.v.)

## CCOC(=O)[C@H](COCc1ccccc1)NC(=O)C(C)(C)NC(=O)[C@@H](SC(C)=O)C(C)C [Example 1(a), N-[2-[(S)-2-Acetylthio-3-methylbutanoylamino]-2-methylpropionyl]-O-benzyl-L-serine ethyl ester]
[1]
  effect on mean arterial pressure: reduces mean arterial pressure
[2]
  duration of inhibition of the angiotensin I induced pressor response: 6 h
[3]
  increase of plasma ANF levels: about 70%
